Test results: patent US7649012B2, “Compounds, pharmaceutical compositions containing same, and methods of use for same” (FASgen, Inc., priority 2002, dated 2010)
pIC50: −log10 of the molar value. Converted amounts (≈) assume the structure as drawn. Blank lines part the entries; values can stand above or below the compound they belong to.

Columns and labels:
[1] = tested on: MCF-7 human breast cancer cells; test: Crystal violet cell growth assay; format: cell-based; conditions: MCF7, MCF-7, 72 hours, read-out: Cr. Violet(IC50)
Protocol: The crystal violet assay measure cell growth but not cytotoxicity. This assay employs crystal violet staining of fixed cells in 96-well plates with subsequent solubilization and measurement of OD490 on a spectrophotometer. The OD490 corresponds to cell growth per unit time measured. Cells are treated with the compounds of interest or vehicle controls and IC50 for each compound is computed.
To measure the cytotoxicity of specific compounds against cancer cells, 5×10^4 MCF-7 human breast cancer cells, obtained from the American Type Culture Collection are plated per well in 24 well plates in DMEM medium with 10% fetal bovine serum, penicillin, and streptomycin. Following overnight culture at 37° C. and 5% CO2, the compounds to be tested, dissolved in DMSO, are added to the wells in 1 μl volume at the following concentrations: 50, 40, 30, 20, and 10 μg/ml in triplicate. Additional concentrations are tested if required. 1 μl of DMSO is added to triplicate wells are the vehicle control. C75 is run at 10, and 5 μg/ml in triplicate as positive controls.
After 72 hours of incubation, cells are stained with 0.5 ml of Crystal Violet stain (0.5% in 25% methanol) in each well. After 10 minutes, wells are rinsed, air dried, and then solubilized with 0.5 ml 10% sodium dodecylsulfate with shaking for 2 hours.

[2] = tested on: MCF-7 human breast cancer cells; test: [14C]acetate incorporation into total lipids; format: cell-based; conditions: [14C]acetate incorporation into lipids
Protocol: This assay measures the incorporation of [^14C]acetate into total lipids and is a measure of fatty acid synthesis pathway activity in vitro. It is utilized to measure inhibition of fatty acid synthesis in vitro.
MCF-7 human breast cancer cells cultured as above, are plated at 5×10^4 cells per well in 24-well plates. […] DMSO is added to triplicate wells for a vehicle control. C75 is run at 5 and 10 μg/ml in triplicate as positive controls. After 4 hours of incubation, 0.25 μCi of [^14C]acetate (10 μl volume) is added to each well.
After 2 hours of additional incubation, medium is aspirated from the wells and 800 μl of chloroform:methanol (2:1) and 700 μl of 4 mM MgCl2 is added to each well. Contents of each well are transferred to 1.5 Eppendorf tubes, and spun at full-speed for 2 minutes in a high-speed Eppendorf Microcentrifuge 5415D. After removal of the aqueous (upper) layer, an additional 700 μl of chloroform:methanol (2:1) and 500 μl of 4 mM MgCl2 are added to each tube and then centrifuged for 1 minutes as above. The aqueous layer is removed with a Pasteur pipette and discarded. An additional 400 μl of chloroform:methanol (2:1) and 200 μl of 4 mM MgCl2 are added to each tube, then centrifuged and aqueous layer is discarded. The lower (organic) phase is transferred into a scintillation vial and dried at 40° C. under N2 gas. Once dried, 3 ml of scintillant (APB #NBC5104) is added and vials are counted for ^14C. The Beckman Scintillation counter calculates the average cpm values for triplicates.
The IC50 for the compounds is defined as the concentration of drug leading to a 50% reduction in [^14C]acetate incorporation into lipids compared to controls. […] The average cpm values are computed by the Beckman scintillation counter (Model LS6500) for each compound concentration. Computation of linear regression, best-fit line, r^2, and 95% confidence intervals are calculated using Prism Version 3.0 (Graph Pad Software).

[3] = tested on: Pseudomonas aeruginosa (ATCC # 27853); test: Broth microdilution MIC; format: cell-based
Protocol: (§1) A broth microdilution assay is used to assess the antimicrobial activity of the compounds. […] Microorganisms tested include Staphylococcus aureus (ATCC # 29213), Enterococcus faecalis (ATCC # 29212), Pseudomonas aeruginosa (ATCC # 27853), and Escherichia coli (ATCC # 25922). The assay is performed in two growth media, Mueller Hinton Broth and Trypticase Soy Broth. […] Colonies are suspended in sterile broth so that the turbidity matches the turbidity of a 0.5 McFarland standard. The inoculum is diluted 1:10 in sterile broth (Mueller Hinton or Trypticase soy) and 195 ul is dispensed per well of a 96-well plate. The compounds to be tested, dissolved in DMSO, are added to the wells in 5 ul volume at the following concentrations: 25, 12.5, 6.25, 3.125, 1.56 and 0.78 ug/ml in duplicate. Additional concentrations are tested if required. 5 ul of DMSO added to duplicate wells are the vehicle control. Serial dilutions of positive control compounds, vancomycin (E. faecalis and S. aureus) and tobramycin (E. coli and P. aeruginosa), are included in each run. After 24 hours of incubation at 37° C., plates are read at OD600 on a Molecular Devices SpectraMax Plus Spectrophotometer. Average OD600 values are computed using SOFTmax Pro Software (Molecular Devices) and MIC values are determined by linear regression analysis using Prism version 3.02 (Graph Pad Software, San Diego).

[4] = tested on: Staphylococcus aureus (ATCC # 29213); test: Broth microdilution MIC; format: cell-based; conditions: Staphylococcus aureus, ATCC29213; Trypticase Soy Broth; read-out: SA/Tsoy(MIC)
Protocol: as §1

[5] = molecular target: rat liver acyl-CoA synthetase; conditions: read-out: 50% inhibition of rat liver acyl-CoA synthetase; cited from earlier work
Raji cells = conditions: cited from earlier work
viral HIV protease = viral HIV protease (Human immunodeficiency virus type 1 group M subtype B, UniProt P04585); conditions: cited from earlier work

IC50 [1]: 15.1 µg/mL (≈ 50.9 µM) | 14C(IC50) [2]: Neg
Compound: C=CCOC1=C(C)C(=O)S[C@]1(C)CCCCCCCC (racemic)

PSAE/MH(MIC) ([3]; Mueller Hinton Broth): Neg | PSAE/Tsoy(MIC) ([3]; Trypticase Soy Broth): Neg | MIC [4]: 23 µg/mL (≈ 76.6 µM)
Compound: CCCCCCCC[C@@]1(C)SC(=O)C(C(=O)OC)=C1O (racemic)

Compound: CCCC=CCC=CC=CC=NN=NO [Triacsin C, 1-hydroxy-3-(E, E, E-2′,4′,7′-undecatrienylidine) triazene]
pIC50 [5]: 5.06 | concentration causing growth inhibition in Raji cells (Raji cells): 1.0 µM

Compound: C/C=C/C/C=C/CCC(=O)[C@H]1O[C@H]1C(N)=O [cerulenin, (2S,3R)-2,3-epoxy-4-oxo-7,10 dodecadienoyl amide]
concentration for inhibition of viral HIV protease (viral HIV protease): 5 mg/mL
